Source: US20250302765A1, “TRIACETYL ANDROGRAPHOLIDE NANOCRYSTAL AND PREPARATION METHOD AND APPLICATION THEREOF” (Henan University, priority 2024, published 2025)

Columns and labels:
[1] = test system: LPS-induced RAW264.7 cell; details: supernatant of LPS-induced RAW264.7 cell culture fluid; cited from earlier work
[2] = test system: rabbits with endotoxic shock; details: serums of rabbits with endotoxic shock; cited from earlier work
[3] = In-vitro release degree in simulated pulmonary fluid (dialysis bag, HPLC); assay type: physicochemical; details: simulated pulmonary fluid pH 7.4, 37° C.
Protocol: With the triacetyl andrographolide nanocrystal prepared in Example 1 as an experimental subject, an activated dialysis bag with a molecular weight cut-off of 8000-14000 Da was taken, 5 mL of a simulated pulmonary fluid was added into the dialysis bag, the triacetyl andrographolide nanocrystal (0.5 mg by triacetyl andrographolide) was precisely weighed and dispersively suspended in the above simulated pulmonary fluid, two ends were tightened, then the dialysis bag was put into a conical flask containing 100 mL of a simulated pulmonary fluid in-vitro release medium (composition of the medium as shown in Table 1), the conical flask was placed in a constant-temperature gas bath shaker (37° C., 120 r/min), 2 mL of a released liquor was taken at each of different time points (0.5 h, 1 h, 2 h, 4 h, 6 h, 8 h, 12 h, 24 h, 36 h and 48 h) and was filtered through a 0.22 μm filter membrane, subsequence filtrates were taken to determine drug concentrations by adopting an HPLC method, and at the same time, the release medium was supplemented with 2 mL of an isothermal simulated pulmonary fluid. A cumulative release percentage was calculated according to determined results, and a release curve of the nanocrystal was drawn. […]

[4] = in vivo; cited from earlier work
[5] = set-up: species or system SD rats; details: rat, in vivo, po, 200 mg/kg
Protocol: The triacetyl andrographolide nanocrystal obtained in Example 1 was adopted, and a total of 12 SD rats were used as test objects (half female and half male, 200±20 g).
The rats were randomly divided into 2 groups (n=6, half female and half male) by body weight before a test was started. The test was carried out after fasting without water-deprivation for 12 h, one group was fed with a triacetyl andrographolide active pharmaceutical ingredient suspension (dosage of 200 mg/kg) via intragastric administration, and the other group was fed with a triacetyl andrographolide nanocrystal suspension (50 mg/kg by triacetyl andrographolide) via intragastric administration.
With an active pharmaceutical ingredient as reference, relative bioavailability of the triacetyl andrographolide nanocrystal was calculated according to the following formula:
[formula] • where AUC0-t, nanocrystal and AUC0-t, active pharmaceutical ingredient corresponded to areas under the plasma concentration-time curves at a moment 0-t of the triacetyl andrographolide nanocrystal and the active pharmaceutical ingredient respectively; and
Doseactive pharmaceutical ingredient and Dosenanocrystal corresponded to intragastric administration dosages of the triacetyl andrographolide active pharmaceutical ingredient and the nanocrystal respectively.
• where MRT(0-t) is a mean value of in-vivo retention time of drug molecules, representing time required for eliminating 63.2% of drugs in vivo; • T1/2 is a terminal elimination half-life, which is time required for a terminal phase plasma concentration to decrease by half; • Tmax is time required to reach a peak concentration of drug after administration, this parameter reflects a speed at which a drug enters the body, and the faster the absorption rate, the shorter the time to peak; • Cmax is a peak concentration of drug, the highest value of a plasma concentration occurring after administration, and this parameter is an important indicator reflecting a rate and degree of drug absorption in the body; • Vd is a proportionality constant between a drug dosage in the body and a plasma concentration when a drug reaches dynamic equilibrium in the body, usually with Las the unit, and this parameter reflects the degree of a distribution range of the drug in the body, with higher values indicating the wider distribution; and an apparent volume of distribution is numerically obtained by a ratio of a clearance rate to a terminal elimination rate; • F is bioavailability, a measure for a speed and degree at which a drug is absorbed into blood circulation, and is an important indicator for evaluating a degree of drug absorption; and the bioavailability may be divided into absolute bioavailability and relative bioavailability, the former is used to compare an absorption difference between two administration routes, while the latter is used to evaluate an absorption difference between two preparations; and • CL is a clearance rate, a value of an apparent volume of distribution of drugs cleared from the body per unit time, usually with L/h as the unit, and this parameter is an important parameter reflecting the body's drug disposal characteristics and is closely related to physiological factors; and the clearance rate is obtained according to a ratio of a dosage to AUC(0-∞).

**Q.** What does the source list for `C=C1CC[C@@H]2[C@](C)(COC(C)=O)[C@H](OC(C)=O)CC[C@@]2(C)[C@@H]1C/C=C1/C(=O)OC[C@H]1OC(C)=O` [active pharmaceutical ingredient, triacetyl andrographolide]?
**A.** content of IL-1β [1]: can reduce; content of TNF-α [1]: can reduce; content of IL-1β [2]: can reduce; content of TNF-α [2]: can reduce; cumulative release percentage ([3]; 12 h): 39%; cumulative release percentage ([3]; 48 h): 42%; absolute bioavailability [4]: 7.19%; absolute bioavailability relative to that of andrographolide [4]: more than 7 times; AUC(0-t) [5]: 1924 ± 277.9 ng·h/mL; CL/F [5]: 2000 mL/min/kg; Cmax [5]: 495.1 ± 172.6 ng/mL; MRT(0-t) [5]: 8.07 ± 0.22 h; T1/2 [5]: 4.79 ± 1.81 h; Tmax [5]: 6.67 ± 0.47 h; Vd [5]: 800 ± 360 L/kg
